Results reported in patent US9637483B2, “Heterocyclic compound” (TAKEDA PHARMACEUTICAL COMPANY LIMITED, priority 2013, dated 2017).

How the values were obtained:
Assay type in all cases: biochemical
JAK1 = target: T1, JAK1 (Homo sapiens, UniProt P23458); assay: JAK1 enzyme inhibition test (LANCE method); conditions: 1 μM test compound; read-out: JAK1 enzyme inhibitory activity (%, 1 μM)
T1 construct: purchased Invitrogen
Description: (§1) JAK1 enzyme inhibitory activity of test compounds was measured by the LANCE method (PerkinElmer). First, a test compound diluted with assay buffer (50 mM HEPES (pH 7.5), 10 mM MgCl2, 1 mM EGTA, 2 mM DTT, 0.01% Tween20, 0.01% BSA) was added to a 384-well plate by 2 μL each. Then, a JAK1 (Invitrogen) solution and a fluorescence-labeled peptide substrate (ULight-JAK1, PerkinElmer) solution diluted with assay buffer to 187.5 ng/mL and 300 nM, respectively, were added by 2 μL each. Then, an enzyme reaction was started by adding 2 μL each of ATP solution prepared with assay buffer to 150 μM. After the reaction at room temperature for 1 hr, Detection Buffer (PerkinElmer) prepared to contain 20 mM EDTA, 4 nM europium-labeled anti-phosphotyrosine antibody (PerkinElmer) was added by 6 μL each. After standing at room temperature for 1 hr, fluorescence intensity (excitation wavelength 340 nm, fluorescence wavelength 665 nm, delay time 100 microseconds) was measured by a plate reader, Envision (PerkinElmer). The inhibitory activity of each compound was calculated as a relative activity value to the fluorescence intensity of a well free of enzyme as 100% inhibition.

JAK2 = target: T2, JAK2 (Homo sapiens, UniProt O60674); assay: JAK2 enzyme inhibition test (LANCE method); conditions: 1 μM test compound; read-out: JAK2 enzyme inhibitory activity (%, 1 μM)
T2 construct: purchased Invitrogen
T2 sequence (O60674 whole entry): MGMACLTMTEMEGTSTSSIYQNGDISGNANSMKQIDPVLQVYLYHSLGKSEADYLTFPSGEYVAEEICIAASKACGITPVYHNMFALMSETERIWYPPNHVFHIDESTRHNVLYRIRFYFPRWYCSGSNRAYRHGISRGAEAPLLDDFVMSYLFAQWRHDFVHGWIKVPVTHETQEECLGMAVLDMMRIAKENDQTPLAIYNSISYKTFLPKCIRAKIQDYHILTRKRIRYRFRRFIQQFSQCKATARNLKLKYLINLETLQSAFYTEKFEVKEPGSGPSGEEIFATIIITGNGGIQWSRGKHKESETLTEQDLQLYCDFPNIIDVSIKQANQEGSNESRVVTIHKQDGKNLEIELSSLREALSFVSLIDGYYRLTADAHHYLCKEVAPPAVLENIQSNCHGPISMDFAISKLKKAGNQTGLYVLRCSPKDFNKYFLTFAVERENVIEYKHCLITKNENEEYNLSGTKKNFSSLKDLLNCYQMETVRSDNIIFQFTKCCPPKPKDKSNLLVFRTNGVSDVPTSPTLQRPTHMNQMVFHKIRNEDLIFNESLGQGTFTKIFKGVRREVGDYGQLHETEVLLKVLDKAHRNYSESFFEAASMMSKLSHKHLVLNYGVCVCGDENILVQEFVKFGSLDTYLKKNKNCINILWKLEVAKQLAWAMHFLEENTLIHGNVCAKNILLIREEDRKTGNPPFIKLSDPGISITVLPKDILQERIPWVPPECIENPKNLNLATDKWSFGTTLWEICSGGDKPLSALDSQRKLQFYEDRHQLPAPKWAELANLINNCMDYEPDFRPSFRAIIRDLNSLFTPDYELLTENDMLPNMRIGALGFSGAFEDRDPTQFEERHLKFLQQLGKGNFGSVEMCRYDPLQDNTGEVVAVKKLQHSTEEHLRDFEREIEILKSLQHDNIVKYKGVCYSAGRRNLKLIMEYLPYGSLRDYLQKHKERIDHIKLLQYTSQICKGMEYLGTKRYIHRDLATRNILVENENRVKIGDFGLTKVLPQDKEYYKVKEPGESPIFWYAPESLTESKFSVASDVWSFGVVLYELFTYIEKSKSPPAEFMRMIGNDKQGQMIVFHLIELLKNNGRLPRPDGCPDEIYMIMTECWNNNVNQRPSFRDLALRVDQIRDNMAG
Description: as §1, with “JAK2 enzyme” for “JAK1 enzyme”, “a JAK2” for “a JAK1”, “to 6” for “to 187.5”, “to 45” for “to 150”

TYK2 = target: T3, TYK2 (Homo sapiens, UniProt P29597); assay: TYK2 enzyme inhibition test (LANCE method); conditions: 1 μM test compound; read-out: TYK2 enzyme inhibitory activity (%, 1 μM)
T3 construct: purchased Invitrogen
T3 sequence (P29597 whole entry): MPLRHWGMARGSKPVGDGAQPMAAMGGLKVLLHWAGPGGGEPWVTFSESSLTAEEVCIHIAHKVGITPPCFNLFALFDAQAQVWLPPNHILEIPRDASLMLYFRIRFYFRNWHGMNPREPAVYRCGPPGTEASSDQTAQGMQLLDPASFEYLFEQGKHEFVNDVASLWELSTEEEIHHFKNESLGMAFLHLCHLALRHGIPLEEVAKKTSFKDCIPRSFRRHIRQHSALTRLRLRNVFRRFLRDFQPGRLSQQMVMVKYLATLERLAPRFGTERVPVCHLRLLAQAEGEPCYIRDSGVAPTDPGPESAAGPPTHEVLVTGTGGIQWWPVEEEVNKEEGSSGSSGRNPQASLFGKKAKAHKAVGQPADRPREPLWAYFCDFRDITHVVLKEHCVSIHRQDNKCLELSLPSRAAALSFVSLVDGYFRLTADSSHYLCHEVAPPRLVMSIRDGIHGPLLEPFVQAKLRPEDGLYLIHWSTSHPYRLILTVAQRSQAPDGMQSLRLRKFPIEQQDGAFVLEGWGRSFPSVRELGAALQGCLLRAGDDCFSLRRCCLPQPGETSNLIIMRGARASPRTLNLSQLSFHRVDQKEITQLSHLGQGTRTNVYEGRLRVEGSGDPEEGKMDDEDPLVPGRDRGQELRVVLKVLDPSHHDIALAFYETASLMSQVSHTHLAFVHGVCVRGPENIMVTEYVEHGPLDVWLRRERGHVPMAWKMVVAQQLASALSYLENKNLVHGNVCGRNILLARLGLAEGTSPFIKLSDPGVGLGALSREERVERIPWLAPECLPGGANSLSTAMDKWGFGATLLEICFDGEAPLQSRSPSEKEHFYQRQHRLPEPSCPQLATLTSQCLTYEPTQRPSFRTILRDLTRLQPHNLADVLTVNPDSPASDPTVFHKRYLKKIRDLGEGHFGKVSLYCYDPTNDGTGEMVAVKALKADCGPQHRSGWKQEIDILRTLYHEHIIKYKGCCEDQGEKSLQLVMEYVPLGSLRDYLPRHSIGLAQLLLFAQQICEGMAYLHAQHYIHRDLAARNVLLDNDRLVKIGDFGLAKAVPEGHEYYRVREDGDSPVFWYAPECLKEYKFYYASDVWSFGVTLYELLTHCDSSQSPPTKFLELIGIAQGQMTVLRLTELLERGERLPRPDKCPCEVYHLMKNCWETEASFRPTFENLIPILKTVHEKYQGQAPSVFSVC
Description: as §1, with “TYK2 enzyme” for “JAK1 enzyme”, “a TYK2” for “a JAK1”, “to 375” for “to 187.5”, “to 30” for “to 150”

JAK3 = target: T4, JAK3 (Homo sapiens, UniProt P52333); assay: JAK3 enzyme inhibition test (LANCE method); conditions: 1 μM test compound; read-out: JAK3 enzyme inhibitory activity (%, 1 μM)
T4 construct: purchased Invitrogen
T4 sequence (P52333 1-1124): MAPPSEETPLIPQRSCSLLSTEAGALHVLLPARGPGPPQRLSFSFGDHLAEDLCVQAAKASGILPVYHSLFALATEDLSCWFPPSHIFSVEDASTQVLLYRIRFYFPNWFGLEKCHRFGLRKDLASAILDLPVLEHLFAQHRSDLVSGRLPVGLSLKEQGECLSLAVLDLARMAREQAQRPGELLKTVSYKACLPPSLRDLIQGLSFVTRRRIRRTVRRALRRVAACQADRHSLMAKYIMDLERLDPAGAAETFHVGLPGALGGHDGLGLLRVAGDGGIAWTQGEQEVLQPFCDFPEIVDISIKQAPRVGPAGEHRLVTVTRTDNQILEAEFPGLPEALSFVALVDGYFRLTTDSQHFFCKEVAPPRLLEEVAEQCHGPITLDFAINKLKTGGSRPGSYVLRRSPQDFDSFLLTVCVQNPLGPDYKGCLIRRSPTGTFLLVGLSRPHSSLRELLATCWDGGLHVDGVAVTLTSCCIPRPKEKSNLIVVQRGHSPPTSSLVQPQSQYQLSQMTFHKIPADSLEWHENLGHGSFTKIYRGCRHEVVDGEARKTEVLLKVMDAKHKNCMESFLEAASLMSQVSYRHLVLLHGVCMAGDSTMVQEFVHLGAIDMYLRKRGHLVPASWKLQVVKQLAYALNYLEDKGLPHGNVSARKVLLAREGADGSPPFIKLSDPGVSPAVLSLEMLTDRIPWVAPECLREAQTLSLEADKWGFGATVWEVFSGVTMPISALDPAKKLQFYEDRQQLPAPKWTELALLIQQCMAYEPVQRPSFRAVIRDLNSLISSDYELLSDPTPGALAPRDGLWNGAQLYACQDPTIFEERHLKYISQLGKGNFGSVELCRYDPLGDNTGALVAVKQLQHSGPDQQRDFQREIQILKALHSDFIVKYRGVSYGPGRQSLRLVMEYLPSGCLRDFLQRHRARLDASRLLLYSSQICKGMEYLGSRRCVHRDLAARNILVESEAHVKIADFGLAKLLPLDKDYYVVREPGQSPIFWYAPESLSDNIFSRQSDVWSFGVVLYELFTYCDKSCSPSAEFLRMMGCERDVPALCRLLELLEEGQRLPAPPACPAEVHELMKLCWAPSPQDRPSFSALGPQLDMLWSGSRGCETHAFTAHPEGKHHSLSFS
Description: as §1, with “JAK3 enzyme” for “JAK1 enzyme”, “a JAK3” for “a JAK1”, “to 12” for “to 187.5”, “to 15” for “to 150”

T1 sequence (P23458 whole entry): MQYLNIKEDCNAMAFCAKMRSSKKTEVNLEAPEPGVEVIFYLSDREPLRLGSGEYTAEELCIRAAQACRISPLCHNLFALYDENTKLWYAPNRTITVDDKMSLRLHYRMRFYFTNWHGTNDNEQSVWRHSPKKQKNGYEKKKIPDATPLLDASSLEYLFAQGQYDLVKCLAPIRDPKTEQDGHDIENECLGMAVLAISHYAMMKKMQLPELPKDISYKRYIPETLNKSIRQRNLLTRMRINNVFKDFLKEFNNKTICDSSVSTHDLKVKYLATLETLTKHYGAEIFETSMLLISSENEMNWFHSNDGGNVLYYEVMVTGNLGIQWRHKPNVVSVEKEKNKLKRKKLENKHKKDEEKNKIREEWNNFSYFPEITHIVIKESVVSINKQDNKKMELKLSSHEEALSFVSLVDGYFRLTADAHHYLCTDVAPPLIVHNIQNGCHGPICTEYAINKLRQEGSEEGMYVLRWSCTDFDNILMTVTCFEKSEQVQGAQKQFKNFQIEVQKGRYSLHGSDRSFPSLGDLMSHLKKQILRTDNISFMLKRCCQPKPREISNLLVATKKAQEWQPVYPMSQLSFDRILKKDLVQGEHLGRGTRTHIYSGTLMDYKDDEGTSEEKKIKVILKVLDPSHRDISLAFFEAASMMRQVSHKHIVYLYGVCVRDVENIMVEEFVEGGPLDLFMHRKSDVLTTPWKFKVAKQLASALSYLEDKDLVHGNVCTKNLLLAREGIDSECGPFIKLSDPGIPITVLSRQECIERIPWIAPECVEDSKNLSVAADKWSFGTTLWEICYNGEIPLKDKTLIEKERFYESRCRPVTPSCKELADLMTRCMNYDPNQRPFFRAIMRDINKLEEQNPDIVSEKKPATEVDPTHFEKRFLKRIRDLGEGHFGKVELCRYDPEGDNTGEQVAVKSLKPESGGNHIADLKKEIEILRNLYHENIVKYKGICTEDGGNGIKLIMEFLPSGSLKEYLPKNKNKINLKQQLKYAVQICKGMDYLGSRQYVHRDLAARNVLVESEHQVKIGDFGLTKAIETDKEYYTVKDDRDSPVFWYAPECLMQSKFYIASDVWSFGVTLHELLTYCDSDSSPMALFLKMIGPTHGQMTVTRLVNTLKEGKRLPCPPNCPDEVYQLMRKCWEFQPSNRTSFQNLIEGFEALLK

Row | Structure (SMILES) | inhibition at 1 µM (JAK1) [%] | inhibition at 1 µM (JAK2) [%] | inhibition at 1 µM (TYK2) [%] | inhibition at 1 µM (JAK3) [%]
1 | COCC(=O)N1CCN(c2cc(-c3cn([C@@H](C)C(C)C)c(=O)c4c(N)n[nH]c34)nn2C)CC1 [Example 17, 3-amino-7-(5-(4-(methoxyacetyl)piperazin-1-yl)-1-methyl-1H-pyrazol-3-yl)-5-((2S)-3-methylbutan-2-yl)-1,5-dihydro-4H-pyrazolo[4,3-c]pyridin-4-one] | 97 | 99 | 100 | 99
2 | CC(C)[C@H](C)n1cc(-c2cc(N3CCC(C)(O)CC3)n(C)n2)c2[nH]nc(N)c2c1=O [Example 18, 3-amino-7-(5-(4-hydroxy-4-methylpiperidin-1-yl)-1-methyl-1H-pyrazol-3-yl)-5-((2S)-3-methylbutan-2-yl)-1,5-dihydro-4H-pyrazolo[4,3-c]pyridin-4-one] | 96 | 98 | 99 | 99
3 | CC(C)[C@H](C)n1cc(-c2cc(N3CCCCC3)n(C)n2)c2[nH]nc(N)c2c1=O [Example 19, 3-amino-5-((2S)-3-methylbutan-2-yl)-7-(1-methyl-5-(piperidin-1-yl)-1H-pyrazol-3-yl)-1,5-dihydro-4H-pyrazolo[4,3-c]pyridin-4-one] | 98 | 98 | 99 | 99
4 | CC(C)[C@H](C)n1cc(-c2cc(N3CCC[C@H]3CO)n(C)n2)c2[nH]nc(N)c2c1=O [Example 20, 3-amino-7-(5-((2S)-2-(hydroxymethyl)pyrrolidin-1-yl)-1-methyl-1H-pyrazol-3-yl)-5-((2S)-3-methylbutan-2-yl)-1,5-dihydro-4H-pyrazolo[4,3-c]pyridin-4-one] | 95 | 98 | 99 | 100
5 | CC(C)[C@H](C)n1cc(-c2cc(N3CC[C@@H](O)C3)n(C)n2)c2[nH]nc(N)c2c1=O [Example 21, 3-amino-7-(5-((3R)-3-hydroxypyrrolidin-1-yl)-1-methyl-1H-pyrazol-3-yl)-5-((2S)-3-methylbutan-2-yl)-1,5-dihydro-4H-pyrazolo[4,3-c]pyridin-4-one] | 97 | 98 | 99 | 99
6 | CC(C)[C@H](C)n1cc(-c2cc(N3CCC[C@@H]3CO)n(C)n2)c2[nH]nc(N)c2c1=O [Example 22, 3-amino-7-(5-((2R)-2-(hydroxymethyl)pyrrolidin-1-yl)-1-methyl-1H-pyrazol-3-yl)-5-((2S)-3-methylbutan-2-yl)-1,5-dihydro-4H-pyrazolo[4,3-c]pyridin-4-one] | 96 | 98 | 99 | 99
7 | CC(C)[C@H](C)n1cc(-c2cc(N3CC[C@H](O)C3)n(C)n2)c2[nH]nc(N)c2c1=O [Example 23, 3-amino-7-(5-((3S)-3-hydroxypyrrolidin-1-yl)-1-methyl-1H-pyrazol-3-yl)-5-((2S)-3-methylbutan-2-yl)-1,5-dihydro-4H-pyrazolo[4,3-c]pyridin-4-one] | 97 | 98 | 99 | 99
8 | CO[C@@H]1CCN(c2cc(-c3cn([C@@H](C)C(C)C)c(=O)c4c(N)n[nH]c34)nn2C)C1 [Example 24, 3-amino-7-(5-((3R)-3-methoxypyrrolidin-1-yl)-1-methyl-1H-pyrazol-3-yl)-5-((2S)-3-methylbutan-2-yl)-1,5-dihydro-4H-pyrazolo[4,3-c]pyridin-4-one] | 96 | 98 | 100 | 99
9 | CO[C@H]1CCN(c2cc(-c3cn([C@@H](C)C(C)C)c(=O)c4c(N)n[nH]c34)nn2C)C1 [Example 25, 3-amino-7-(5-((3S)-3-methoxypyrrolidin-1-yl)-1-methyl-1H-pyrazol-3-yl)-5-((2S)-3-methylbutan-2-yl)-1,5-dihydro-4H-pyrazolo[4,3-c]pyridin-4-one] | 98 | 98 | 100 | 99
10 | COC[C@@H]1CCCN1c1cc(-c2cn([C@@H](C)C(C)C)c(=O)c3c(N)n[nH]c23)nn1C [Example 26, 3-amino-7-(5-((2S)-2-(methoxymethyl)pyrrolidin-1-yl)-1-methyl-1H-pyrazol-3-yl)-5-((2S)-3-methylbutan-2-yl)-1,5-dihydro-4H-pyrazolo[4,3-c]pyridin-4-one] | 88 | 96 | 98 | 98
